Measurements from patent US9371351B2, “Glycomimetics as Pseudomonas aeruginosa lectin inhibitors” (priority 2012, dated 2016).

Target: LecB (Pseudomonas aeruginosa, UniProt Q9HYN5)
Assay: biochemical
Type: binding
Conditions: for rIC50 (MeMan): IC50 relative to Me-α-Man, below 1 = stronger ligand than Me-α-Man
Protocol: A LecB competition assay was carried out by a novel fluorescence polarization assay developed by the inventors of the present invention. To date, an enzyme-linked lectin assay (ELLA) is widely used for the evaluation in screening of the binding potential of ligands to LecB. This allows the evaluation of molecules over a broad affinity range, including monovalent ligands and oligomeric dendrimers thereof. ELLAs have been developed based on enzyme-linked immunosorbent assays (ELISA). […] Furthermore, the current ELLA protocol involves either a surface immobilization of LecB or a covalent modification of the lectin, which could interfere with ligand binding. Consequently, hits from the ELLA are usually further characterized by direct measurement of the binding process of the ligand with the native, unmodified protein using microcalorimetry, requiring large amounts of protein.
In this assay format, the displacement of a fluorescently-labeled reporter ligand bound to the receptor by an inhibitor can be measured by mixing protein, inhibitor and reporter ligand in a given buffer system.
Similar conditions were applied, but the protein concentration was fixed at 150 nM. […] The resulting sigmoidal data points on the logarithmic inhibitor concentration scale were used to fit a one-site inhibition model and obtain IC50 values.
After addition of the reagents, the microtiter plates were centrifuged at 800 rpm for 1 min at 23° C. and incubated for 6 h at room temperature. The fluorescence was measured on a Tecan […] F500 plate reader (Tecan Austria GmbH) with excitation filters at 485 nm and emission filters at 535 nm in black 384-well microtiter plates (Greiner Bio-One). The G-factor was set on 0.92154 and the gain to 80. The measured intensities were reduced by buffer values. The data were analyzed with Graphpad Prism 5 and fitted according to the four parameter variable slope model.

LecB, sequence (Q9HYN5 entry or part of it): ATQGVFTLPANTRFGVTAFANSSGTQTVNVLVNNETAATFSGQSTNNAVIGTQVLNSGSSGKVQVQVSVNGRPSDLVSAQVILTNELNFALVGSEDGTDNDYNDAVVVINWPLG

Row | SMILES | rIC50 (MeMan) | IC50
1 | CO[C@H]1O[C@H](CNS(=O)(=O)c2ccccc2)[C@@H](O)[C@H](O)[C@@H]1O [10a, Methyl 6-(phenylsulfonylamido)-6-deoxy-α-D-mannopyranoside] | 0.09 | 
2 | CO[C@H]1O[C@H](CNS(=O)(=O)c2ccc(C)cc2)[C@@H](O)[C@H](O)[C@@H]1O [10b, Methyl 6-(p-tosylamido)-6-deoxy-α-D-mannopyranoside] | 0.31 | 68.2 µM
3 | CO[C@H]1O[C@H](CNS(=O)(=O)c2ccc(Br)cc2)[C@@H](O)[C@H](O)[C@@H]1O [10c, Methyl 6-(4-bromophenylsulfonylamido)-6-deoxy-α-D-mannopyranoside] | 0.12 | 24.9 µM
4 | CO[C@H]1O[C@H](CNS(=O)(=O)c2ccc([N+](=O)[O-])cc2)[C@@H](O)[C@H](O)[C@@H]1O [10d, Methyl 6-(4-nitrophenylsulfonylamido)-6-deoxy-α-D-mannopyranoside] | 0.21 | 47.4 µM
5 | CO[C@H]1O[C@H](CNS(=O)(=O)c2c(C)cc(C)cc2C)[C@@H](O)[C@H](O)[C@@H]1O [10e, Methyl 6-(2,4,6-trimethylphenylsulfonylamido)-6-deoxy-α-D-mannopyranoside] | 0.015 | 
6 | CO[C@H]1O[C@H](CNS(=O)(=O)c2c(C(C)C)cc(C(C)C)cc2C(C)C)[C@@H](O)[C@H](O)[C@@H]1O [10f, Methyl 6-(2,4,6-triisopropylphenylsulfonylamido)-6-deoxy-α-D-mannopyranoside] | 0.05 | 11.5 µM
7 | COc1ccccc1/C=C/C(=O)NC[C@H]1O[C@H](OC)[C@@H](O)[C@@H](O)[C@@H]1O [11b, Methyl 6-(2-methoxycinnamido)-6-deoxy-α-D-mannopyranoside] | 0.21 | 45.8 µM
8 | CO[C@H]1O[C@H](CNC(=O)/C=C/c2ccccc2[N+](=O)[O-])[C@@H](O)[C@H](O)[C@@H]1O [11c, Methyl 6-(2-nitrocinnamido)-6-deoxy-α-D-mannopyranoside] | 0.35 | 75.5 µM
9 | CO[C@H]1O[C@H](CNC(=O)/C=C/c2ccccc2N)[C@@H](O)[C@H](O)[C@@H]1O [11d, Methyl 6-(2-aminocinnamido)-6-deoxy-α-D-mannopyranoside] | 0.24 | 52.6 µM
10 | CO[C@H]1O[C@H](CNC(=O)/C=C/c2ccccc2C)[C@@H](O)[C@H](O)[C@@H]1O [11e, Methyl 6-(2-methylcinnamido)-6-deoxy-α-D-mannopyranoside] | 0.29 | 62.7 µM
11 | CO[C@H]1O[C@H](CNC(=O)/C=C/c2cccc([N+](=O)[O-])c2)[C@@H](O)[C@H](O)[C@@H]1O [11f, Methyl 6-(3-nitrocinnamido)-6-deoxy-α-D-mannopyranoside] | 0.25 | 53.4 µM
12 | CO[C@H]1O[C@H](CNC(=O)/C=C/c2cccc(N)c2)[C@@H](O)[C@H](O)[C@@H]1O [11g, Methyl 6-(3-aminocinnamido)-6-deoxy-α-D-mannopyranoside] | 0.29 | 63 µM
13 | COc1ccc(/C=C/C(=O)NC[C@H]2O[C@H](OC)[C@@H](O)[C@@H](O)[C@@H]2O)cc1 [11h, Methyl 6-(4-methoxycinnamido)-6-deoxy-α-D-mannopyranoside] | 0.3 | 66 µM
14 | CO[C@H]1O[C@H](CNC(=O)/C=C/c2ccc([N+](=O)[O-])cc2)[C@@H](O)[C@H](O)[C@@H]1O [11i, Methyl 6-(4-nitrocinnamido)-6-deoxy-α-D-mannopyranoside] | 0.49 | 106 µM
15 | CO[C@H]1O[C@H](CNC(=O)/C=C/c2ccc(N)cc2)[C@@H](O)[C@H](O)[C@@H]1O [11j, Methyl 6-(4-aminocinnamido)-6-deoxy-α-D-mannopyranoside] | 0.24 | 53.2 µM
16 | CO[C@H]1O[C@H](CNC(=O)/C=C/c2ccc(C)cc2)[C@@H](O)[C@H](O)[C@@H]1O [11k, Methyl 6-(4-methylcinnamido)-6-deoxy-α-D-mannopyranoside] | 0.16 | 
